Common to all, as to assay type: biochemical
Experiment [1] deals with T1, recombinant human MAO-B (monoamine oxidase-B) (Homo sapiens, UniProt P27338).
T1 construct: purchased Sigma-Aldrich
T1 sequence (P27338 1-520): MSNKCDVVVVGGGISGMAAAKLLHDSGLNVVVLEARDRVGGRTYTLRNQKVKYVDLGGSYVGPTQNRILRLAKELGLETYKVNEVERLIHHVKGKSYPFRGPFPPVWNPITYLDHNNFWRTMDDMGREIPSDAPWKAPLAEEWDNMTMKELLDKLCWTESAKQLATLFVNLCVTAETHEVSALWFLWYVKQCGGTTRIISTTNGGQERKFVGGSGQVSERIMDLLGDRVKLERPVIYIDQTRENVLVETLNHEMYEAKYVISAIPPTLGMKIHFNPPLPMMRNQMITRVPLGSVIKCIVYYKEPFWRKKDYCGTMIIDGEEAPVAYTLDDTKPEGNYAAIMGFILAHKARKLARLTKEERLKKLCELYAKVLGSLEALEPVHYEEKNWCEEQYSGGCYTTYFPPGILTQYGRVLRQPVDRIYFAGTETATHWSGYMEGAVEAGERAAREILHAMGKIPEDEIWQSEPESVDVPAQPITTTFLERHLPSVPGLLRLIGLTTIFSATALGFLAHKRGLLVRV
Briefly: Activity on recombinant human MAO-B, Amplex Red method, 1 mM benzylamine substrate. As to conditions: read-out: Inhibitory Activity (IC50, nM) MAO-B. A digest of the protocol:
(§1)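 Enzyme in pH 7.4 phosphate buffer; 30 min, 37° C with compound (DMSO <1%); start with 200 uM Amplex Red + 1 U/mL HRP + tyramine 0.5 mM (MAO-A) or benzylamine 1 mM (MAO-B); kinetic read ex 544/em 590, 1-2 h; % rate decrease vs DMSO control → IC50, 4-parameter fit.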

In another experiment the target is T2, recombinant human VAP-1 (Homo sapiens, UniProt Q16853).
T2 construct: purchased R&D systems
T2 sequence (Q16853 1-763): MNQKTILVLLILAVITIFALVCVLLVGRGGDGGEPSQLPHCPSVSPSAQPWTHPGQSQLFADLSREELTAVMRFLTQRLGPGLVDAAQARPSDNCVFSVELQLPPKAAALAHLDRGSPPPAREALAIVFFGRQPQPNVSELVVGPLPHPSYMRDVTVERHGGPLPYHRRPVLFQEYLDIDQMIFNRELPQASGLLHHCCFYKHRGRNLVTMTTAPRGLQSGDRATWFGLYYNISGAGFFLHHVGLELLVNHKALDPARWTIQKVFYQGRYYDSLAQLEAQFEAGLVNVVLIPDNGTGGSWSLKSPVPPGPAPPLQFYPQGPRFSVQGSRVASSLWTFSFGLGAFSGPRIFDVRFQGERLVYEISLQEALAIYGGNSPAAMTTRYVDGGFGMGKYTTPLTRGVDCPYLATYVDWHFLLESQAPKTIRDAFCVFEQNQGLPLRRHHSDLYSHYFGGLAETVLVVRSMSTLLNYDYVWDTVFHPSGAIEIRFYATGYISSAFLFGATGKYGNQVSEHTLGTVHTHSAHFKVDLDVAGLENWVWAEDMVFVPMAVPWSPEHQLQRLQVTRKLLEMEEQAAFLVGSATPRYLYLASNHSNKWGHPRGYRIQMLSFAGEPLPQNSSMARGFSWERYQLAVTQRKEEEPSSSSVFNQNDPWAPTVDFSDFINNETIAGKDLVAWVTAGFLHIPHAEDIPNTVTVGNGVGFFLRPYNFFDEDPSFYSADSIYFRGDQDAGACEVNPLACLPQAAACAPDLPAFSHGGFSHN
Briefly: Activity on recombinant human VAP-1, Amplex Red HRP-coupled hydrogen peroxide assay, benzylamine substrate. As to conditions: recombinant human VAP-1, benzylamine substrate, read-out: Inhibitory Activity (IC50, nM) human VAP-1. A digest of the protocol:
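Enzyme in 50 mM sodium phosphate (pH 7.4) is exposed to test compound for 30 min at 37 °C. Benzylamine (1 mM) with HRP and Amplex Red then starts the reaction, and the fluorescence rate, relative to a DMSO-only control, gives IC50.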

Experiment [2] deals with T3, recombinant human MAO-A (monoamine oxidase-A) (Homo sapiens, UniProt P21397).
T3 construct: purchased Sigma-Aldrich
T3 sequence (P21397 1-527): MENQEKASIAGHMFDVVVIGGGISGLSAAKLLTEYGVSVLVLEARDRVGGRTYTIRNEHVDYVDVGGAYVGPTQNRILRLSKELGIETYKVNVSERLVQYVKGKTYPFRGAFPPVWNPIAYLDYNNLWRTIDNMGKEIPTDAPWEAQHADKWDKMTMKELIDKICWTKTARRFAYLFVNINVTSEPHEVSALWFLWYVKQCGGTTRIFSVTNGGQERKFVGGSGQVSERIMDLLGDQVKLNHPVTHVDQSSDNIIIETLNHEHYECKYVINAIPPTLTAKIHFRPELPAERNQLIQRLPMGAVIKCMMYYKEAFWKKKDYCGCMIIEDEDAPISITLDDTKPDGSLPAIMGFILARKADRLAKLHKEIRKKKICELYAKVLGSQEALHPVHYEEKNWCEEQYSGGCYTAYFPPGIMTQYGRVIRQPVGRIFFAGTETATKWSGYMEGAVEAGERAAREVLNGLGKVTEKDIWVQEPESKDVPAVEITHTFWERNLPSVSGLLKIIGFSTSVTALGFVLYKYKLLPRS
Briefly: Activity on recombinant human MAO-A, Amplex Red method, 0.5 mM tyramine substrate. The conditions noted are these: read-out: Inhibitory Activity (IC50, nM) MAO-A. A digest of the protocol: as §1

Experiment [3] addresses T4, recombinant human DAO (diamine oxidase) (Homo sapiens, UniProt P19801).
T4 construct: purchased R&D systems
T4 sequence (P19801 20-751): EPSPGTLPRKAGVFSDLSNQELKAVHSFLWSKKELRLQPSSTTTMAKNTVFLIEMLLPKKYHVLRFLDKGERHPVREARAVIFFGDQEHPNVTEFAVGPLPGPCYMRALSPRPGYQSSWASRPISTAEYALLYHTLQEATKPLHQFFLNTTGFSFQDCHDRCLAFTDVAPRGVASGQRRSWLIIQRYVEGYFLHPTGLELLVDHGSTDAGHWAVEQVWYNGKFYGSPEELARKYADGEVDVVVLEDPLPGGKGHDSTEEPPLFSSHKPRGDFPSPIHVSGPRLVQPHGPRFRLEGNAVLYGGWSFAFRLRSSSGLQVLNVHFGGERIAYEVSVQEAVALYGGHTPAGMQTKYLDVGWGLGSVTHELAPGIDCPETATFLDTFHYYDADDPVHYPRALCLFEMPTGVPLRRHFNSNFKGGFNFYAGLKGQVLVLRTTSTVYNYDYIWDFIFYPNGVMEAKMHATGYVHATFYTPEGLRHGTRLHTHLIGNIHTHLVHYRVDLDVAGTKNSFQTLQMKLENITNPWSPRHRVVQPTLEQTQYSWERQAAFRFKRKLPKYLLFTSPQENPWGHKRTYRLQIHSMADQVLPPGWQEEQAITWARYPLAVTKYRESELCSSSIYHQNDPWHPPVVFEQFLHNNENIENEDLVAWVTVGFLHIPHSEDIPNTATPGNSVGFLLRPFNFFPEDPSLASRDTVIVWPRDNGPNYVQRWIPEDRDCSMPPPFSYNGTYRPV
Description: Activity on recombinant human DAO, Amplex Red method, 1 mM putrescine substrate. As to conditions: recombinant human DAO, read-out: Inhibitory Activity (IC50, nM) DAO. A digest of the protocol:
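Inhibition of recombinant human DAO (diamine oxidase, R&D systems) was assessed with the Amplex Red Hydrogen Peroxide Assay Kit. Hydrogen peroxide produced from 1 mM putrescine was detected through an HRP-coupled reaction that converts Amplex Red into fluorescent resorufin, read at 544 nm excitation and 590 nm emission. IC50 values came from four-parameter logistic fits in GraphPad Prism.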

Where [4] appears, read: 1 mM putrescine, * = between 10 and 100 nM, ** = between 300 and 1000 nM.

Counter-ions that a name gives are not always drawn. Like-named read-outs stand apart in the source and are kept apart here. Some results are limits rather than exact numbers.

With `NC/C(=C\F)Cn1ncn(-c2cccc(-c3cccc4[nH]ccc34)c2)c1=O` [Example 98, 2-[(2E)-2-(aminomethyl)-3-fluoroprop-2-en-1-yl]-4-[3-(1H-indol-4-yl)phenyl]-2,4-dihydro-3H-1,2,4-triazol-3-one hydrochloride], the concentration for half-maximal inhibition (IC50) (usually the midpoint of a concentration-inhibition curve) in experiment [1] (1 mM benzylamine) is 9320 nM; at recombinant human VAP-1 (30 min preincubation at 37° C.), 4.7 nM; in experiment [2] (0.5 mM tyramine), 76400 nM; in experiment [3] (setting [4]) it was 68 nM.

With `NC/C(=C\F)Cn1ncn(-c2cccc(-c3cccc4c3oc3ccccc34)n2)c1=O` [Example 203, 2-[(2E)-2-(aminomethyl)-3-fluoroprop-2-en-1-yl]-4-[6-(dibenzo[b,d]furan-4-yl)pyridin-2-yl]-2,4-dihydro-3H-1,2,4-triazol-3-one hydrochloride], the concentration for half-maximal inhibition (IC50) in experiment [1] (1 mM benzylamine substrate) is 73 nM; on recombinant human VAP-1, 1.8 nM; in experiment [2] (0.5 mM tyramine substrate), 12000 nM; in experiment [3] (1 mM putrescine substrate) it was 3 nM.

For `NC/C(=C\F)Cn1ncn(-c2cccc(C#Cc3ccc4c(c3)CCC(=O)N4)n2)c1=O` [Example 254, 6-[2-[6-[1-[(E)-2-(aminomethyl)-3-fluoro-allyl]-5-oxo-1,2,4-triazol-4-yl]-2-pyridyl]ethynyl]-3,4-dihydro-1H-quinolin-2-one], the IC50 in experiment [1] (1 mM benzylamine substrate) is greater than 10000 nM; on recombinant human VAP-1, 0.2 nM; in experiment [2] (0.5 mM tyramine substrate), greater than 100000 nM; in experiment [3] (1 mM putrescine substrate) it was 35 nM.

Consider `Cc1cc(-n2cnn(C/C(=C/F)CN)c2=O)cnc1-c1ccc2sc(N)nc2c1` [Example 118, 4-[6-(2-amino-1,3-benzothiazol-5-yl)-5-methylpyridin-3-yl]-2-[(2E)-2-(aminomethyl)-3-fluoroprop-2-en-1-yl]-2,4-dihydro-3H-1,2,4-triazol-3-one hydrochloride], for which the IC50 is 3040 nM in experiment [1] (1 mM benzylamine), 0.34 nM at recombinant human VAP-1 (30 min preincubation at 37° C.), greater than 100000 nM in experiment [2] (0.5 mM tyramine) and 1.7 nM in experiment [3] (setting [4]).

Consider `NC/C(=C\F)Cn1ncn(-c2ccc(F)cc2)c1=O` [Example 6, 2-[(2E)-2-(aminomethyl)-3-fluoroprop-2-en-1-yl]-4-(4-fluorophenyl)-2,4-dihydro-3H-1,2,4-triazol-3-one hydrochloride], for which the half-inhibitory concentration (IC50) in experiment [1] (1 mM benzylamine) was greater than 10000 nM; on recombinant human VAP-1 (30 min preincubation at 37° C.) it was 3.7 nM; in experiment [2] (0.5 mM tyramine), greater than 100000 nM; in experiment [3] (setting [4]), 1100 nM.

On to `NC/C(=C\F)Cn1ncn(-c2ccc(-c3ccc4c(c3)OCO4)cc2F)c1=O` [Example 45, 2-[(2E)-2-(aminomethyl)-3-fluoroprop-2-en-1-yl]-4-[4-(1,3-benzodioxol-5-yl)-2-fluorophenyl]-2,4-dihydro-3H-1,2,4-triazol-3-one hydrochloride], for which the IC50 in experiment [1] (1 mM benzylamine) was less than 10 nM; at recombinant human VAP-1 (30 min preincubation at 37° C.), 0.21 nM; in experiment [2] (0.5 mM tyramine), 198 nM; in experiment [3] (setting [4]) it was 1.6 nM.

In the case of `NC/C(=C\F)Cn1ncn(-c2cccc(C#Cc3cccnc3)c2)c1=O` [Example 243, 2-[(2E)-2-(aminomethyl)-3-fluoroprop-2-en-1-yl]-4-[3-(pyridin-3-ylethynyl)phenyl]-2,4-dihydro-3H-1,2,4-triazol-3-one hydrochloride], the concentration for half-maximal inhibition (IC50) was 940 nM in experiment [1] (1 mM benzylamine substrate), 0.6 nM on recombinant human VAP-1, greater than 100000 nM in experiment [2] (0.5 mM tyramine substrate) and 18 nM in experiment [3] (1 mM putrescine substrate).

On to `NC/C(=C\F)Cn1ncn(-c2cnc(-c3cccc(-c4nc[nH]n4)c3)cn2)c1=O` [Example 219, 2-[(2E)-2-(aminomethyl)-3-fluoroprop-2-en-1-yl]-4-{5-[3-(1H-1,2,4-triazol-3-yl)phenyl]pyrazin-2-yl}-2,4-dihydro-3H-1,2,4-triazol-3-one], for which the half-maximal inhibitory concentration (IC50) in experiment [1] (1 mM benzylamine substrate) was 41 nM; at recombinant human VAP-1, 2.3 nM; in experiment [2] (0.5 mM tyramine substrate) it was greater than 100000 nM; in experiment [3] (1 mM putrescine substrate), less than 100 nM.

For `NC/C(=C\F)Cn1ncn(-c2ncc(-c3ccc4c(c3)NCC4=O)cc2F)c1=O` [Example 163, 6-(6-{1-[(2E)-2-(aminomethyl)-3-fluoroprop-2-en-1-yl]-5-oxo-1,5-dihydro-4H-1,2,4-triazol-4-yl}-5-fluoropyridin-3-yl)-1,2-dihydro-3H-indol-3-one], the IC50 is 740 nM in experiment [1] (1 mM benzylamine substrate), 0.56 nM on recombinant human VAP-1, greater than 100000 nM in experiment [2] (0.5 mM tyramine substrate) and 1.3 nM in experiment [3] (1 mM putrescine substrate).

Take `CC(=O)Nc1cc(-c2cccc(-n3cnn(C/C(=C/F)CN)c3=O)c2)ccn1` [Example 81, N-[4-(3-{1-[(2E)-2-(aminomethyl)-3-fluoroprop-2-en-1-yl]-5-oxo-1,5-dihydro-4H-1,2,4-triazol-4-yl}phenyl)pyridin-2-yl]acetamide hydrochloride]: the half-inhibitory concentration (IC50) is 7520 nM in experiment [1] (1 mM benzylamine), 0.54 nM at recombinant human VAP-1 (30 min preincubation at 37° C.), greater than 100000 nM in experiment [2] (0.5 mM tyramine) and less than 100 nM in experiment [3] (setting [4]).
